Laboratory results published in patent US11168079B2, “Alkene compounds as farnesoid x receptor modulators” (BRISTOL-MYERS SQUIBB COMPANY, priority 2017, dated 2021).

Target: T1, human FXR (Homo sapiens, UniProt Q96RI1)
T1 sequence (Q96RI1 262-486 limits assumed): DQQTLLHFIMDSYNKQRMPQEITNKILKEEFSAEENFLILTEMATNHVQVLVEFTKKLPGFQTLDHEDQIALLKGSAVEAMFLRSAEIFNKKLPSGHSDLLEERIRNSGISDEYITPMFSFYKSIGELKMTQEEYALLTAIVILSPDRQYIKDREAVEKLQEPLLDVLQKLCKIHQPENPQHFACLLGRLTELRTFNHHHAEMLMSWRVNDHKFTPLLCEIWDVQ
Test: transient human FXR/Gal4-luciferase reporter assay (HLE GAL-FXR)
Settings: FXR EC50 (nM), Gal4-hFXR fusion reporter, HEK293 cells; Table 1
Method: A Gal4-hFXR fusion construct reporter system was used as the primary assay to characterize compound activity. A construct including 5 copies of the Gal4 promoter response element upstream of a firefly luciferase reporter cDNA was stably expressed in HEK293 cells. This reporter cell line was maintained in Dulbecco's Modified Eagle's medium (DMEM; Gibco) supplemented with 1% penicillin-streptomycin (P/S) solution, 500 μg/mL Zeocin and 10% charcoal/dextran-treated fetal bovine serum (cs-FBS) at 37° C. in a humidified 5% CO2 atmosphere. Another plasmid was constructed in which the human cytomegalovirus promoter in the pcDNA3.1 vector directs the expression of the cDNA encoding a fusion protein comprised of the DNA binding domain from the Gal4 transcription factor fused to the ligand binding domain from human FXR.
For compound testing, 100 nL of the compounds (serial dilutions in DMSO) are dispensed with an Echo acoustic dispenser (Labcyte) into the wells of a Corning/Costar clear bottom 384-well white plate. The transfected cells are harvested, counted, and diluted such that 10-25,000 cells in 25 μL are plated into each well of the 384-well compound assay plate. The compound-treated cells are incubated overnight at 37° C. in a humidified 5% CO2 atmosphere. The next morning 25 μL of Steady-Glo (Promega) are added to each well of the plate, the mixture is incubated for 15 min. with shaking, and luminescence is measured on an Envision (Perkin Elmer) plate reader.

Compound	EC50
O=C(O)c1cc2ccc(N3CCC(/C=C/c4c(-c5ccccc5OC(F)(F)F)noc4C4CC4)CC3)cc2nn1 [Example 67]	1210 nM
Cn1cc(C(=O)O)c2ncc(N3CC4C(/C=C/c5c(-c6c(Cl)cncc6Cl)noc5C5CC5)C4C3)cc21 (centres unmarked) [Example 209]	472 nM
Clc1cccc(Cl)c1-c1noc(C2CC2)c1/C=C/C1CCN(c2cccc(-c3nn[nH]n3)c2)CC1 [Example 63]	216 nM
O=C(O)c1cc(F)c2nc(N3CCC(/C=C/c4c(-c5ccccc5OC(F)(F)F)noc4C4CC4)CC3)sc2c1 [Example 43]	42 nM
COc1cc(C(=O)O)nc2ccc(N3CC4C(/C=C/c5c(-c6cccnc6C(F)(F)F)noc5C5CC5)C4C3)cc12 (centres unmarked) [Example 141]	98 nM
O=C(O)c1cc(F)c2nc(N3CCC(/C=C/c4c(-c5ccccc5C(F)(F)F)noc4C4CC4)CC3)sc2c1 [Example 49]	23 nM
O=C(O)c1cc(C(F)(F)F)c2cc(N3CC4C(/C=C/c5c(-c6ccccc6C(F)(F)F)noc5C5CC5)C4C3)ccc2n1 (centres unmarked) [Example 75]	577 nM
O=C(O)c1cc(OC(F)F)c2cc(N3CCC(/C=C/c4c(-c5ccccc5C(F)(F)F)noc4C4CC4)CC3)ccc2n1 [Example 99]	3 nM
CC(C)Oc1cc(C(=O)O)nc2ccc(N3CC4C(/C=C/c5c(-c6c(Cl)cncc6Cl)noc5C5CC5)C4C3)cc12 (centres unmarked) [Example 109]	25 nM
CCOc1cc(N2CC3C(/C=C/c4c(-c5ccccc5C(F)(F)F)noc4C4CC4)C3C2)cnc1C(N)=O (centres unmarked) [Example 158]	555 nM
Cn1cc(C(=O)O)c2ncc(N3CC4C(/C=C/c5c(-c6ccccc6C(F)(F)F)noc5C5CC5)C4C3)cc21 (centres unmarked) [Example 211]	154 nM
O=C(O)c1ccc2nc(N3CCC(/C=C/c4c(-c5c(Cl)cncc5Cl)noc4C4CC4)CC3)sc2n1 [Example 85]	156 nM
CCn1cc(C(=O)O)c(=O)c2ccc(N3CC4C(/C=C/c5c(-c6ccccc6C(F)(F)F)noc5C5CC5)C4C3)cc21 (centres unmarked) [Example 192]	132 nM
O=C(O)c1cccc2nc(N3CC4C(/C=C/c5c(-c6c(Cl)cncc6Cl)noc5C5CC5)C4C3)sc12 (centres unmarked) [Example 93]	280 nM
O=C(O)c1cc(O[C@@H]2CCOC2)c2cc(N3CC4C(/C=C/c5c(-c6c(Cl)cncc6Cl)noc5C5CC5)C4C3)ccc2n1 (some centres unmarked) [Example 127]	30 nM
O=C(O)c1ccc2nc(N3CC4C(/C=C/c5c(-c6c(Cl)cncc6Cl)noc5C5CC5)C4C3)ccc2c1 (centres unmarked) [Example 79]	1160 nM
COc1nc(C(=O)O)cc2ccc(N3CC4C(/C=C/c5c(-c6c(Cl)cncc6Cl)noc5C5CC5)C4C3)cc12 (centres unmarked) [Example 122]	126 nM
COc1cc(C(=O)O)cc(-c2ccc(N3CC(/C=C/c4c(-c5ccccc5C(F)(F)F)noc4C4CC4)C3)cn2)c1 [Example 221]	56 nM
Cn1cc(C(=O)O)c(=O)c2ccc(N3CC4C(/C=C/c5c(-c6c(Cl)cncc6Cl)noc5C5CC5)C4C3)cc21 (centres unmarked) [Example 180]	276 nM
COc1cc(C(=O)O)nc2sc(N3CC(/C=C/c4c(-c5ccccc5C(F)(F)F)noc4C4CC4)C3)nc12 [Example 153]	473 nM
O=C(O)c1cnc(N2CCC(/C=C/c3c(-c4c(Cl)cccc4Cl)noc3C3CC3)CC2)c(F)c1 [Example 21]	20 nM
O=C(O)c1ccc(N2CCC(/C=C/c3c(-c4ccccc4OC(F)(F)F)noc3C3CC3)CC2)nc1 [Example 42]	512 nM

Compound	EC50
O=C(O)c1cc(OC2CCOC2)c2cc(N3CC4C(/C=C/c5c(-c6c(Cl)cncc6Cl)noc5C5CC5)C4C3)ccc2n1 (centres unmarked) [Example 120]	18 nM
O=C(O)c1ccc2nc(N3CCC(/C=C/c4c(-c5c(Cl)cccc5Cl)noc4C4CC4)CC3)sc2c1 [Example 22]	12 nM
Cn1cc(C(=O)O)c(=O)c2ccc(N3CC(/C=C/c4c(-c5ccccc5C(F)(F)F)noc4C4CC4)C3)cc21 [Example 181]	400 nM
O=C(O)c1nccc2cc(N3CC4C(/C=C/c5c(-c6c(Cl)cncc6Cl)noc5C5CC5)C4C3)ccc12 (centres unmarked) [Example 105]	310 nM
N#Cc1ccc(N2CCC(/C=C/c3c(-c4c(Cl)cccc4Cl)noc3C3CC3)CC2)cc1 [Example 50, (E)-4-(4-(2-(5-cyclopropyl-3-(2,6-dichlorophenyl)isoxazol-4-yl)vinyl)piperidin-1-yl)benzonitrile]	671 nM
O=C(O)c1ccc(N2CCC(/C=C/c3c(-c4c(Cl)cccc4Cl)noc3C3CC3)CC2)nn1 [Example 18]	447 nM
O=C(O)c1cc(F)c2nc(N3CCC(/C=C/c4c(C5CC5)cnn4-c4c(Cl)cccc4Cl)CC3)sc2c1 [Example 32]	47 nM
Clc1cccc(Cl)c1-c1noc(C2CC2)c1/C=C/C1CCN(c2ccc(-c3nn[nH]n3)cn2)CC1 [Example 64]	30 nM
O=C(O)c1cccc(N2CCC(/C=C/c3c(-c4c(Cl)cccc4Cl)noc3C3CC3)CC2)n1 [Example 13]	206 nM
O=C(O)c1cc(F)c2nc(N3CC4C(/C=C/c5c(-c6c(Cl)cncc6Cl)noc5C5CC5)C4C3)sc2c1 (centres unmarked) [Example 77]	786 nM
O=C(O)c1cc(OC2CCC2)c2cc(N3CC4C(/C=C/c5c(-c6cccnc6C(F)(F)F)noc5C5CC5)C4C3)ccc2n1 (centres unmarked) [Example 142]	54 nM
O=C(O)c1cc(O[C@H]2C[C@@H](F)C2)c2cc(N3CC(/C=C/c4c(-c5cccnc5C(F)(F)F)noc4C4CC4)C3)ccc2n1 [Example 195]	286 nM
O=C(O)c1cc(C(F)(F)F)c2cc(N3CC[C@H](/C=C/c4c(-c5ccccc5C(F)(F)F)noc4C4CC4)C3)ccc2n1 [Example 146]	22 nM
O=C(O)c1cnc(N2CC3C(/C=C/c4c(-c5c(Cl)cccc5Cl)noc4C4CC4)C3C2)s1 (centres unmarked) [Example 86]	1010 nM
O=C(O)c1cc(OC2COC2)c2cc(N3CC4C(/C=C/c5c(-c6c(Cl)cncc6Cl)noc5C5CC5)C4C3)ccc2n1 (centres unmarked) [Example 126]	18 nM
CC(C)Oc1cc(C(=O)O)nc2ccc(N3CC(/C=C/c4c(-c5ccccc5C(F)(F)F)noc4C4CC4)C3)cc12 [Example 149]	164 nM
O=C(O)c1cccc(-c2nc(N3CC4C(/C=C/c5c(-c6c(Cl)cncc6Cl)noc5C5CC5)C4C3)no2)c1 (centres unmarked) [Example 117]	494 nM
COc1cc(C(=O)O)cc(-c2nnc(N3CC4C(/C=C/c5c(-c6c(Cl)cncc6Cl)noc5C5CC5)C4C3)s2)c1 (centres unmarked) [Example 223]	1400 nM
O=C(O)c1cc(OC2CCC2)c2cc(N3CC4C(/C=C/c5c(-c6c(Cl)cncc6Cl)noc5C5CC5)C4C3)ccc2n1 (centres unmarked) [Example 136]	20 nM
O=C(O)c1ccc(N2CCC(/C=C/c3c(-c4c(Cl)cccc4Cl)noc3C3CC3)CC2)cc1Cl [Example 53]	23 nM
O=C(O)c1cc(C(F)(F)F)c2cc(N3CCC(/C=C/c4c(-c5ccccc5C(F)(F)F)noc4C4CC4)CC3)ccc2n1 [Example 45]	12 nM
O=C(O)c1cc(OC2CCC2)c2cc(N3CC4C(/C=C/c5c(-c6ccccc6C(F)(F)F)noc5C5CC5)C4C3)ccc2n1 (centres unmarked) [Example 130]	50 nM

Same assay, conditions: HLE GAL-FXR EC50, Gal4-hFXR fusion reporter, HEK293 cells

Compound	EC50
O=C(O)c1ccc(-c2nc(N3CC4C(/C=C/c5c(-c6c(Cl)cncc6Cl)noc5C5CC5)C4C3)no2)cc1 (centres unmarked) [Example 116, (E)-4-(3-(6-(2-(5-Cyclopropyl-3-(3,5-dichloropyridin-4-yl)isoxazol-4-yl)vinyl)-3-azabicyclo[3.1.0]hexan-3-yl)-1,2,4-oxadiazol-5-yl)benzoic acid]	862 nM
O=C(O)c1ccc(N2CCC(/C=C/c3c(-c4c(Cl)cccc4Cl)noc3C3CC3)CC2)nc1 [Example 1, (E)-6-(4-(2-(5-Cyclopropyl-3-(2,6-dichlorophenyl)isoxazol-4-yl)vinyl)piperidin-1-yl)nicotinic acid]	14 nM
CC1(/C=C/c2c(-c3c(Cl)cccc3Cl)noc2C2CC2)CCN(c2ccc3nc(C(=O)O)ccc3c2)CC1 [Example 7, (E)-6-(4-(2-(5-cyclopropyl-3-(2,6-dichlorophenyl)isoxazol-4-yl)vinyl)-4-methylpiperidin-1-yl)quinoline-2-carboxylic acid]	227 nM
O=C(O)c1cc(OC2CC2)c2cc(N3CC4C(/C=C/c5c(-c6ccccc6C(F)(F)F)noc5C5CC5)C4C3)ccc2n1 (centres unmarked) [Example 184, (E)-4-Cyclopropoxy-6-(6-(2-(5-cyclopropyl-3-(2-(trifluoromethyl)phenyl)-isoxazol-4-yl)vinyl)-3-azabicyclo[3.1.0]hexan-3-yl)quinoline-2-carboxylic acid]	50 nM
O=C(O)c1ccc(N2CCC(/C=C/c3c(C4CC4)cnn3-c3c(Cl)cccc3Cl)CC2)nc1 [Example 11, (E)-6-(4-(2-(4-Cyclopropyl-1-(2,6-dichlorophenyl)-1H-pyrazol-5-yl)vinyl)piperidin-1-yl)nicotinic acid]	148 nM
CC1(/C=C/c2c(-c3c(Cl)cccc3Cl)noc2C2CC2)CCN(c2nc3c(F)cc(C(=O)O)cc3s2)CC1 [Example 6, (E)-2-(4-(2-(5-Cyclopropyl-3-(2,6-dichlorophenyl)isoxazol-4-yl)vinyl)-4-methylpiperidin-1-yl)-4-fluorobenzo[d]thiazole-6-carboxylic acid]	536 nM
O=C(O)c1cc(F)c2nc(N3CCC(/C=C/c4c(-c5c(Cl)cccc5Cl)cnn4C4CC4)CC3)sc2c1 [Example 12, (E)-2-(4-(2-(1-Cyclopropyl-4-(2,6-dichlorophenyl)-1H-pyrazol-5-yl)vinyl)piperidin-1-yl)-4-fluorobenzo[d]thiazole-6-carboxylic acid]	226 nM
C/C(=C\c1c(-c2c(Cl)cccc2Cl)noc1C1CC1)C1CCN(c2nc3c(F)cc(C(=O)O)cc3s2)CC1 [Example 4, (E)-2-(4-(1-(5-Cyclopropyl-3-(2,6-dichlorophenyl)isoxazol-4-yl)prop-1-en-2-yl)piperidin-1-yl)-4-fluorobenzo[d]thiazole-6-carboxylic acid]	2060 nM

Same assay, conditions: read-out: FXR EC50; Gal4-hFXR fusion reporter, HEK293 cells; Table 1

Compound	EC50
COCc1cc(C(=O)O)nc2ccc(N3CC(/C=C/c4c(-c5cccnc5C(F)(F)F)noc4C4CC4)C3)cc12 [Example 171]	65 nM
